According to patent publication US20250082654A1, “AZD3355 (LESOGABERAN) FOR TREATMENT AND PREVENTION OF NONALCOHOLIC STEATOHEPATITIS (NASH), LIVER FIBROSIS, AND OTHER LIVER CONDITIONS” (Icahn School of Medicine at Mount Sinai, priority 2018, published 2025):

Experiments:
LX-2 cells [1] = assay: Cell cytotoxicity assay (MTS); format: cell-based, human; details: 0-300 nM, 24, 48 or 72 hours
Method: (§1) At the beginning of each experiment, stellate cells (LX-2 cells or phHSCs) were serum-starved overnight in DMEM supplied with 0.1% BSA (without antibiotic) to synchronize metabolic activities of the cells. The cells were then exposed to different working concentration of either AZD3355 or sorafenib for 24, 48 and 72 hours.
(§2) 5,000 LX-2 cells or 10,000 phHSCs were plated per well in 96 well plates. Cells were serum starved overnight in DMEM supplemented with 0.1% BSA (without antibiotic). Cells were then incubated with different concentrations of AZD3355 for indicated durations and MTS assays were accomplished using CellTiter 96 AQueous One Solution Cell Proliferation Assay kit (Promega, WI) according to manufacturer's protocol.

phHSCs [2] = assay: Cell cytotoxicity assay (MTS); format: cell-based, human; details: 30 nM or 100 nM, 48 or 72 hours
Method: as §1, §2

LX-2 cells [3] = assay: Cell apoptosis assay (caspase-3/7 activity); format: cell-based, human; details: any dosage, 72 hours
Method: as §1
(§3) 5,000 LX-2 cells or 10,000 phHSCs were plated per well in 96-well clear bottom black plates. After overnight serum starvation in DMEM supplemented with 0.1% BSA (without antibiotic) the cells were exposed to AZD3355 at indicated concentration. For positive apoptotic control the cells were treated with 3% DMSO. After 72 hours of drug exposure the fluorescence signal of Caspase-3 and -7 activities were measured in Synergy HT (BioTek Instrument Inc., VT) spectrofluorometer by using Apo-ONE Homogeneous Caspase-3/7 Assay kit (Promega, WI) according to manufacturer's protocol.

phHSCs [4] = assay: Cell apoptosis assay (caspase-3/7 activity); format: cell-based, human; details: any dosage, 72 hours
Method: as §1, §3

human liver slices = assay: Liver slice assay, histopathology and H&E staining; format: cell-based; details: 24 hours
Method: Ten human liver pieces were collected from the Mount Sinai biorepository. The samples were prepared by coring the liver with 8 mm cylindrical coring tools. The liver cores were kept in ice cold WE medium, with GlutaMAX supplemental. A liver core was then mounted on a specimen plate with cyanoacrylate adhesive. Liver slices (approximately 200 μm in thickness) were placed in ice cold Krebs-Henesleit buffer in the presence of carbogen gas. There was then a 1 hour pre-incubation in WE GlutaMAX media with gentamicin in 95% O2 and 5% CO2 at 37° C. in a humidified rocker chamber to restore ATP levels.
The liver slices were then cultured in WE GlutaMAX media with gentamicin in 95% O2 and 5% CO2 at 37° C. in a humidified rocker chamber with slow 70 rpm rocking in the presence of AZD3355 in the amounts of 250 nM, 500 nM, 1000 nM, or 2000 nM, or sorafenib at 1000 nM., or control vehicle (saline water).
After 24 hours, the tissue slices were harvested for either RNA isolation and quantitative PCR for measurements of Col1α1, TNFα, and IL-6 expression, or for histopathology and hematoxylin and eosin (H&E) staining as described in Example 3.

NASH model mice = assay: NASH mouse model, histopathological scoring of liver sections; format: in vivo; details: for Hepatocyte ballooning ± SE: score 0-2; for Portal inflammation ± SE / Lobular Inflammation ± SE / Steatosis ± SE: score 0-3; for Fibrosis Stage ± SE: score 0-4; for NAFLD activity score (NAS) ± SE: score 0-8
Method: Four separate groups of mice were given either 0.5% methylcellulose (as Vehicle) or AZD3355 at 10 mg/kg (low dose) body weight of mice or 30 mg/kg (high dose) body weight of mice by twice daily (BID (5 days/week)) and OCA at 30 mg/kg body weight of mice by daily (QD (5 days/week)) through oral route for up to next 12 weeks (week 13 to week 24). Them last group of mice were not given any drug or vehicle treatment, as No Tx—24 weeks and maintained in parallel with treatment/vehicle groups. Usually all doses were given at early morning and the second daily dose of AZD3355 at evening (10 hours of intervals). All animals were closely monitored the health conditions and behavior.
A piece of tissue from large liver lobe was fixed in 10% Formalin Buffered (Astral Diagnostics Incorporated NJ) embedded in paraffin and microtome sectioning were performed. Slides containing tissue sections were baked at 60° C. for 1 hour and re-hydrated through xylene followed by graded ethanol (100%, 95%, 85% and 70%) into distilled water and processed in either Picrosirius red/Fast green or hematoxylin and eosin staining.
A total of 2 sections/animal were stained with H&E staining performed by standard protocol.
Steatosis, hepatocyte ballooning, lobular inflammation, portal inflammation and fibrosis of picroserious red/fast green and H&E stained liver section were scored according to the NASH Clinical Research Network (NASH CRN) scoring system in a blinded fashion by an expert hepato-pathologist in Icahn School of Medicine at Mount Sinai. NAFLD activity score (NAS) was calculated according to Brunt criteria and range from 0-8. NAS was calculated by the sum of scores of steatosis (0-3), hepatocyte ballooning (0-2) and lobular inflammation (0-3). NAS score of >5.0 strongly correlated with “definite-NASH” whereas <3 correlated with “not-NASH”. Fibrosis (0-4) or portal inflammation (0-3) scores were assessed separately and not included in NAS.

## NC[C@@H](F)C[PH](=O)O [AZD3355, [(2R)-3-amino-2-fluoropropyl] phosphinic acid]
LX-2 cells [1]
  cell cytotoxicity (MTS): no significant cell cytotoxicity observed except for in LX-2 cells at 300 nM
phHSCs [2]
  cell cytotoxicity (MTS): no significant cell cytotoxicity
LX-2 cells [3]
  apoptotic effect (caspase-3/7 activity): no apoptotic effect
phHSCs [4]
  apoptotic effect (caspase-3/7 activity): no apoptotic effect
Human liver slices
  liver cells viability (H&E): did not change
NASH model mice; ♀ Mice, 10 mg/kg, vehicle 1.2 ± 0.1
  Hepatocyte ballooning ± SE: 1.3 ± 0.1
NASH model mice; ♀ Mice, 10 mg/kg, vehicle 1.6 ± 0.1
  Portal inflammation ± SE: 1.6 ± 0.1
NASH model mice; ♀ Mice, 10 mg/kg, vehicle 2.3 ± 0.1
  Lobular Inflammation ± SE: 2.5 ± 0.1
NASH model mice; ♀ Mice, 10 mg/kg, vehicle 2.5 ± 0.1
  Steatosis ± SE: 2.6 ± 0.1
NASH model mice; ♀ Mice, 10 mg/kg, vehicle 3.0 ± 0.1
  Fibrosis Stage ± SE: 3.1 ± 0.1
NASH model mice; ♀ Mice, 10 mg/kg, vehicle 6.1 ± 0.4
  NAFLD activity score (NAS) ± SE: 6.4 ± 0.4
NASH model mice; ♀ Mice, 10 mg/kg, vehicle 1.8 ± 0.2
  Steatohepatitis Grade ± SE: 2.1 ± 0.2
NASH model mice; ♀ Mice, 30 mg/kg twice daily, vehicle 1.2 ± 0.1
  Hepatocyte ballooning ± SE: 1.3 ± 0.1
NASH model mice; ♀ Mice, 30 mg/kg twice daily, vehicle 1.6 ± 0.1
  Portal inflammation ± SE: 2.0 ± 0.0
NASH model mice; ♀ Mice, 30 mg/kg twice daily, vehicle 2.3 ± 0.1
  Lobular Inflammation ± SE: 2.7 ± 0.1
NASH model mice; ♀ Mice, 30 mg/kg twice daily, vehicle 2.5 ± 0.1
  Steatosis ± SE: 2.3 ± 0.1
NASH model mice; ♀ Mice, 30 mg/kg twice daily, vehicle 3.0 ± 0.1
  Fibrosis Stage ± SE: 3.1 ± 0.1
NASH model mice; ♀ Mice, 30 mg/kg twice daily, vehicle 6.1 ± 0.4
  NAFLD activity score (NAS) ± SE: 6.4 ± 0.3
NASH model mice; ♀ Mice, 30 mg/kg twice daily, vehicle 1.8 ± 0.2
  Steatohepatitis Grade ± SE: 2.2 ± 0.2
NASH model mice; ♂ Mice, 10 mg/kg, vehicle 1.7 ± 0.1
  Hepatocyte ballooning ± SE: 1.7 ± 0.1
NASH model mice; ♂ Mice, 10 mg/kg, vehicle 2.0 ± 0.1
  Portal inflammation ± SE: 1.9 ± 0.0
NASH model mice; ♂ Mice, 10 mg/kg, vehicle 2.7 ± 0.1
  Steatosis ± SE: 2.7 ± 0.1
NASH model mice; ♂ Mice, 10 mg/kg, vehicle 2.8 ± 0.1
  Lobular Inflammation ± SE: 2.8 ± 0.1
NASH model mice; ♂ Mice, 10 mg/kg, vehicle 3.3 ± 0.1
  Fibrosis Stage ± SE: 3.2 ± 0.1
NASH model mice; ♂ Mice, 10 mg/kg, vehicle 7.2 ± 0.3
  NAFLD activity score (NAS) ± SE: 7.2 ± 0.3
NASH model mice; ♂ Mice, 10 mg/kg, vehicle 2.6 ± 0.2
  Steatohepatitis Grade ± SE: 2.7 ± 0.1
NASH model mice; ♂ Mice, 30 mg/kg twice daily, vehicle 1.7 ± 0.1
  Hepatocyte ballooning ± SE: 1.8 ± 0.1
NASH model mice; ♂ Mice, 30 mg/kg twice daily, vehicle 2.0 ± 0.1
  Portal inflammation ± SE: 2.0 ± 0.2
NASH model mice; ♂ Mice, 30 mg/kg twice daily, vehicle 2.7 ± 0.1
  Steatosis ± SE: 2.4 ± 0.1
NASH model mice; ♂ Mice, 30 mg/kg twice daily, vehicle 2.8 ± 0.1
  Lobular Inflammation ± SE: 2.6 ± 0.2
NASH model mice; ♂ Mice, 30 mg/kg twice daily, vehicle 3.3 ± 0.1
  Fibrosis Stage ± SE: 3.0 ± 0.0
NASH model mice; ♂ Mice, 30 mg/kg twice daily, vehicle 7.2 ± 0.3
  NAFLD activity score (NAS) ± SE: 6.8 ± 0.5
NASH model mice; ♂ Mice, 30 mg/kg twice daily, vehicle 2.6 ± 0.2
  Steatohepatitis Grade ± SE: 2.5 ± 0.2
